Data from ChEMBL document CHEMBL1127345, “Synthesis, binding properties, and 18F labeling of fluorocarazolol, a high-affinity beta-adrenergic receptor antagonist” (J Med Chem, 1994).

How the values were obtained:
Format in all cases: physicochemical
[1] = The octanol-water partition coefficient at pH 5.8
[2] = The octanol-water partition coefficient at pH 7.5
[3] = The octanol-water partition coefficient at pH 10.8
[4] = The octanol-water partition coefficient at pH 7.0
[5] = The octanol-water partition coefficient at pH 3.3
[6] = The octanol-water partition coefficient at pH 8.3
[7] = The octanol-water partition coefficient at pH 4.5
[8] = The octanol-water partition coefficient at pH 10.0
[9] = The octanol-water partition coefficient at pH 9.4
[10] = The octanol-water partition coefficient at pH 6.4

Row | SMILES | logD [1] | logD [2] | logD [3] | logD [4] | logD [5] | logD [6] | logD [7] | logD [8] | logD [9] | logD [10]
1 | CC(C)NCC(O)COc1cccc2[nH]c3ccccc3c12 (stereo not given) [CARAZOLOL] | 0.42 | 1.51 | 2.43 | 1.07 | 0.17 | 2.13 | 0.3 | 2.5 | 2.44 | 0.68
2 | CC(CF)NCC(O)COc1cccc2[nH]c3ccccc3c12 (stereo not given) [FLUOROCARAZOLOL] | 1.11 | 2.48 | 2.81 | 2.2 | 0.03 | 2.7 | 0.38 | 2.81 | 2.8 | 1.76
